Test results from US20250326799A1, “AGENTS INDUCING VASCULARISATION” (Coegin Pharma AB, priority 2022, published 2025).
“Also recorded” adds a separate entry of the source.

Experiments:
Format in all cases: cell-based
[1] = test system: human coronary artery smooth muscle cells (HCASMCs); assay: sFasL-induced apoptosis, caspase 3 and 7 activation, HCASMCs; conditions: 10 nM, 100 nM, 1000 nM
Method: Human Umbilical Vein Endothelial Cells (HUVECs) and Human Coronary Artery Smooth Muscle Cells (HCASMCs) were purchased from Thermo Fisher. Cells were grown in Medium 200 containing 2% Low Serum Growth Supplement and Medium 231 with 5% Smooth Muscle Growth Supplement (Invitrogen, CA, USA) respectively with addition of Antibiotic-Antimycotic (1%, Invitrogen, CA, USA). Test polypeptide and sFasL (PeproTech, NJ, USA) were dissolved in the respective complete medium.
Caspase-Glo 3/7 Assay (Promega, USA) was performed to evaluate cell apoptosis. HUVECs and HCASMCs were seeded into 96-well plates at a density of 3-5×10^3 per well. For additional NRP-1 on cells transfected siRNA, NRP-1 was added 24 hours after transfection and the mixture of Caspase-Glo 3/7 was added 48 hours after polypeptide stimulations. Subsequent steps were performed as manufacturer's instructions using the FOL26 and FOL56 as test compounds. Data were read by Wallac 1420 Victor 2 (Perkin Elmer, USA).

[2] = test system: Human umbilical cord endothelial cells (HUVECs); assay: BrdU cell proliferation in HUVECs; conditions: for endothelial cell proliferation (DNA synthesis, uptake of BrdU, O.D. 450 nm): 10 nM, 100 nM, 1000 nM, compared to control; for stimulation of endothelial cell proliferation (BrdU) after NRP-1 knock-down: HUVECs treated with siRNA-NC or siRNA for NRP-1, then peptide; for proliferation of human umbilical vascular endothelial cells (BrdU uptake): addition of the peptide, increasing concentration
Method: Cell proliferation was evaluated with BrdU Cell Proliferation Elisa Kit (Abcam, UK). After incubation at 37° C. overnight with respective complete medium, for NRP-1 knock down-relative experiments, HUVECs and HCASMCs on 96-well plates were transfected with siRNA/siRNA-NC directly; for test polypeptide stimulations, HUVECs and HCASMCs were starved with low-serum condition for additional 24 hours and 48 hours before treatments. At 32 hours after transfection or polypeptide stimulations, cells were cultured with BrdU reagent for another 16 hours to determine cell proliferation. Subsequent steps were performed as manufacturer's instructions and data were read by Wallac 1420 Victor 2 (Perkin Elmer, USA).
For stimulation of endothelial cell proliferation, human umbilical cord endothelial cells were first treated with a scramble non-coding siRNA (NC) or siRNA for NRP-1, subsequently they were treated with FOL26 in concentrations of 10 nM, 100 nM, and 1000 nM, and DNA synthesis analyzed by measuring the uptake of BrdU.
The impact of FOL-026 peptide on human umbilical vascular endothelial cells (HUVECs) proliferation (FIG. 18a) and apoptosis (FIG. 18c) induced with low-oxygen condition was determined by BrdU uptake (n=8-9 per group) and active caspase-3/-7 (n=7-10 per group) separately. The ROS level (FIG. 18b) activated by 50 ug/ml oxidized Low-density Lipoprotein (oxLDL) for 2 hours in cells pre-incubated with FOL-026 peptides was assessed using H2O2 measurement (n=4-8 per group). Representative pictures of endothelial migration into an in vitro scratch injury were shown (FIG. 19a) and the wound closure rate (FIG. 19b) in HUVECs stimulated with increasing concentration of FOL-026 peptide was quantified by image J software (n=8-9 per group). Scale bar=150 um. Data are presented as means±SEM and acquired from 3 to 4 independent replicate tests. *P<0.05, **P<0.01, ****P<0.0001 by one-way ANOVA and Dunnett's post-hoc test.
The efficiency of small interfering RNA transfection for 48 hours in HUVECs was confirmed by qRT-PCR (n=4) (FIG. 22a). Effect of FOL-026 peptide stimulation on cell proliferation (FIG. 22b) and cell apoptosis at 0.1% oxygen (FIG. 22c) in HUVECs transfected with siRNA-NC or siNRP-1 was evaluated by BrdU incorporation (n=4-7 per group) and active caspase-3/-7 ((n=4-7 per group). Representative pictures of endothelial cells at 0 and 5 hours after scratch wounding are shown in 23a. The wound closure rate (FIG. 23b) of siRNA-NC/siNRP-1-transfected HUVECs stimulated with increasing concentration of FOL-026 peptide was quantified by image J software (n=9-12 per group). Scale bar=150 um. Data are presented as means±SEM and acquired from 3 to 4 independent replicate tests. *P<0.05, **P<0.01, ***P<0.001, ****P<0.0001 by Student's t test for A, two-way ANOVA followed with Sidak's and Dunnett's multiple comparisons test for B, C and E.
The endothelial cell proliferation (FIG. 29a) was assessed with BrdU uptake in human umbilical vascular endothelial cells (HUVECs) stimulated with increasing concentration of FOL-005 peptide for 48 hours (n=7-10 per group).

[3] = test system: human coronary smooth muscle cells (HCASMCs); assay: In vitro scratch wound closure, HCASMCs; conditions: for wound closure (scratch wound assay): HCASMCs
Method: The effect of FOL-026 peptide treatment on smooth muscle cell proliferation (FIG. 25a) and apoptosis (FIG. 25c) induced with low-oxygen condition was evaluated with the uptake of BrdU (n=10 per group) and active caspase-3/-7 (n=6-8 per group) separately. H2O2 measurement (FIG. 25b) of smooth muscle cells pre-incubated with FOL-26 peptides after 50 ug/ml oxidized Low-density Lipoprotein (oxLDL) stimulation for 2 hours (n=6-7 per group). Representative images of scratch wound assay in vitro are shown (FIG. 26a) and the ability of wound healing (FIG. 26b) in human coronary smooth muscle cells (HCASMCs) treated with FOL-026 peptides was measured by image J software (n=10 per group). Scale bar=150 um. Data are presented as means±SEM and acquired from 3 to 4 independent replicate tests. *P<0.05, **P<0.01, ***P<0.001, ****P<0.0001 by one-way ANOVA and Dunnett's post-hoc test.
qRT-PCR analysis of NRP-1 mRNA expression in HCASMCs with small interfering RNA transfection for 48 hours (n=4) (FIG. 27a). The assessment of BrdU incorporation (FIG. 27b, n=10-11) and caspase-3/-7 activation (FIG. 27c, n=3-10) in siRNA-NC/siNRP-1-transfected […] treated with indicated concentration of FOL-026 peptide. The wound closure rate (FIG. 28b) of HCASMCs in siRNA-NC and siNRP-1 group stimulated with increasing concentration of FOL-026 peptide was quantified by image J software (n=9-12 per group). Scale bar=150 um. Data are presented as means±SEM and acquired from 3 to 4 independent replicate tests. *P<0.05, **P<0.01, ***P<0.001, ****P<0.0001 by Student's t test for A, two-way ANOVA followed with Sidak's and Dunnett's multiple comparisons test.
The effect of FOL-005 peptide on smooth muscle cell proliferation (FIG. 30a) was determined with BrdU incorporation in peptide-treated human coronary smooth muscle cells (HCASMCs). Scratch wound assay (FIG. 30b) of HCASMCs incubated with FOL-005 peptides for 5 hours was measured by image J software (n=10-12 per group) and representative pictures of smooth muscle cell migration into an in vitro scratch injury were shown (FIG. 30c). Scale bar=150 um.

Row | Sequence | sFasL-induced apoptosis (caspase 3 and 7) [1] | endothelial cell proliferation (DNA synthesis, uptake of BrdU, O.D. 450 nm) ([2]; HUVECs) | wound closure (scratch wound assay) [3] | wound closure after NRP-1 knock-down (Example 11) ([3]; siRNA-NC/siNRP-1-transfected cells, printed as HUVECs, increasing concentration, 5 hours) | sFasL-induced apoptosis (caspase 3 and 7) ([1]; listed as FOL26) | stimulation of endothelial cell proliferation (BrdU) after NRP-1 knock-down [2] | stimulation of endothelial cell proliferation (BrdU) after NRP-1 knock-down ([2]; listed as FOL26) | endothelial cell proliferation (DNA synthesis, uptake of BrdU, O.D. 450 nm) ([2]; HUVECs, listed as FOL26) | BrdU uptake after siRNA for NRP-1 ([2]; HUVECs, 10 and 100 nM) | proliferation of human umbilical vascular endothelial cells (BrdU uptake) ([2]; HUVECs)
1 | AEIDSIELSYGIK [FOL56] | reduced sFasL-induced apoptosis; also recorded: capable of inhibiting, or trended towards inhibiting apoptosis | significant increase in proliferation; also recorded: increases proliferation at all concentrations |  |  |  |  |  |  |  | 
2 | VDTYDGGISVVYGLR [FOL-026] |  |  | accelerates wound closure | positive effect on wound closure | reduced sFasL-induced apoptosis; also recorded: capable of reversing the sFasL-induced apoptosis | blocks the effect | NRP-1 dependent | significant increase in proliferation; also recorded: increase in O.D. (450 nm) | reduction | increases
3 | VDTYDGDISVVYGLR [FOL-005] |  |  | accelerate HCASMC wound closure |  |  |  |  |  |  | increases
